Assay results from patent US6555541B1, “Substituted phenyl compounds with immunosuppressing activity and pharmaceutical compositions” (Astrazeneca UK Limited, priority 2000, dated 2003).
Where a name gives a salt, the structure may show the parent alone.

Row | melting point | Structure (SMILES)
1 | 72 to 82 °C (dec.) | Cc1ccc(CN2CCNCC2)cc1NC(=S)CNc1ccc(F)c(F)c1 [Example 2, 2-(3,4-Difluoro-phenylamino)-N-(2-methyl-5-piperazin-1-ylmethyl-phenyl)-thioacetamide]
2 | 160 °C (dec.) | Cc1c(Cn2ccnc2)cccc1NC(=O)CNc1ccc(F)c(F)c1 [Example 17, 2-(3,4-Difluorophenylamino)-N-(3-imidazol-1-ylmethyl-2-methylphenyl)acetamide]
3 | 144 °C (dec.) | Cc1c(CN(C)C)cccc1NC(=O)CNc1ccc(F)c(F)c1 [Example 18, 2-(3,4-Difluorophenylamino)-N-(3-dimethylaminomethyl-2-methylphenyl)acetamide]
4 | > 230 °C | Cc1cc(N2CCNCC2)ccc1NC(=O)CNc1ccc(F)c(F)c1 (as salt: hydrochloride) [Example 10, 2-(3,4-Difluoro-phenylamino)-N-(2-methyl-5-piperazin-1-yl-phenyl)-acetaniide, trihydrochloride]
5 | 240 °C (dec.) | O=C(CNc1ccc(F)c(F)c1)Nc1cc(N2CCNCC2)ccc1Cl (as salt: hydrochloride)
6 | 232 to 248 °C (dec.) | Cc1ccc(CN2CCNCC2)cc1NC(=O)CNc1ccc(F)c(F)c1 (as salt: hydrochloride) [Example 1, 2-(3,4-Difluorophenylano)-N-(2-methyl-5-piperazin-1-ylmethyl-phenyl)-acetamide, trihydrochloride]
